Reference: patent publication US20070275086A1, “Use of Increased Molecular-Weight Hirudin as an Anticoagulant in Extracorporeal Kidney Replace Therapy” (Max-Planck-Gesellschaft Zur Forderung Der Wissenschaften E.V, priority 1999, published 2007)
Several values for one entry are separate records, joined by “and”; a condition that tells them apart may be missing. Equal values may be shown once.

Key:
[1] = test system: HIT II-positive patients; conditions: human, in vivo
Experimental: Patient was anticoagulated with 6900 IU heparin. […] The patient complained during dialysis and also in the dialysis-free intervals of problems relating to blood pressure and in some cases mild states of confusion. […] The average number of blood platelets before and after haemodialysis was between 350 and 400/nl.
The patient was transferred to PEG-hirudin according to the following dosage scheme: first haemodialysis: 0.1 mg/kg as a bolus, second to 10th haemodialysis: 0.05 mg/kg PEG hirudin, 11th haemodialysis and beyond: 0.025 mg/kg. […] The blood level of PEG hirudin fluctuated between 0.4 μg/ml before the start of haemodialysis and 1.0 μg/ml after dialysis. The filling volumes with the Type GFS plus 11 dialysers (GAMBRO) were as follows: under heparin application—the mean value for the last three heparin-anticoagulated dialyses was 87 ml; the filling volume during PEG-hirudin treatment for HD 5-HD 6 was 96 ml.
Creatinine clearance was less than 12 ml/min. The anticoagulant used during haemodialysis was un-fractionated heparin. Additionally, the dialysers (H120, Braun-Melsungen) were “primed” before the start of haemodialysis with 500 units of heparin. The patient received 3000 units of heparin as a bolus and 3000 units of heparin as an infusion during the 3.5 hour haemodialysis. […]

[2] = test system: blood platelets; conditions: human, in vivo
Source text: Patient one. […] Patient was anticoagulated with 6900 IU heparin.
The objective and subjective findings which point towards an HIT II condition were no longer evident after the changeover to anticoagulation with PEG-hirudin. The blood platelet counts, which had constantly shown values above 400/nl during the last dialyses under heparin, fell during the PEG-hirudin haemodialysis to the range from 320 to 350/nl; a trend towards continued normalisation was clearly demonstrable.
The patient was then transferred to PEG-hirudin.

[3] = Dialyser filling volume and clotting in the extracorporeal circuit at end of haemodialysis; format: in vivo, human
Source text: Following this, the patient was transferred to PEG-hirudin.

[4] = test system: HIT II antibodies
Experimental: Patient. […] Patient was anticoagulated with 6900 IU heparin. […] The patient complained during dialysis and also in the dialysis-free intervals of problems relating to blood pressure and in some cases mild states of confusion. […] The average number of blood platelets before and after haemodialysis was between 350 and 400/nl.
Creatinine clearance was less than 12 ml/min. The anticoagulant used during haemodialysis was un-fractionated heparin. Additionally, the dialysers (H120, Braun-Melsungen) were “primed” before the start of haemodialysis with 500 units of heparin. The patient received 3000 units of heparin as a bolus and 3000 units of heparin as an infusion during the 3.5 hour haemodialysis. […] The patient complained of tingling in the extremities, a feeling of restlessness and intermittent state of confusion. Between the dialysis sessions, the patient complained of headaches, malaise and loss of appetite. They stated that the people around them complained that they were irritable and seemed under stress.
This patient had been dialysed for 5 months initially with un-fractionated heparin, then with fractionated heparin (Enoxaparin). Enoxaparin was applied in a dose of 20 mg directly before the start of the dialysis. After an incorrect dialysis (rise in pressure before the dialyser) over the dialysis period of 4.5 h, an additional 10 mg Enoxaparin were applied via an indwelling infusion pump placed before the dialyser (F 50 S, Fresenius). The patient indicated severe shortness of breath, a decline in circulation and blood pressure to base values of 80/30 mmHg shortly after the start of haemodialysis.

| Substance | fall in blood pressure at the start of haemodialysis [1] | average number of blood platelets before and after haemodialysis [2] | blood platelet counts [2] | filling volume of dialyser ([3]; patient one, Type GFS plus 11 dialysers (GAMBRO), specified 100 ml, heparin: mean of last three dialyses, PEG-hirudin: HD 5-HD 6) | filling volume at the end of haemodialysis ([3]; patient two, H120 dialysers, heparin: last two haemodialyses, PEG-hirudin: after the 4th haemodialysis) | HIT II-specific diagnosis (HIPA-test) [4] | tests for HIT-positive antibodies (HIPA and ELISA) [4] | blood pressure base values shortly after the start of haemodialysis [1] | blood platelets during haemodialysis, reduced down to [2] | tests for HIT II antibodies (HIPA test and platelet-factor-4 ELISA) [4] |
| --- | --- | --- | --- | --- | --- | --- | --- | --- | --- | --- |
| heparin | 35 mmHg | 350 to 400 nL⁻¹ | above 400 /nl | 87 mL | 71 mL and 73 mL | positive result | strongly positive | – | – | – |
| Enoxaparin | – | – | – | – | – | – | – | 80/30 | 100 nL⁻¹ | positive |
